Results reported in patent US20260226073A1 (AURIGENE ONCOLOGY LIMITED, priority 2023, published 2026).

Columns and labels:
[1] = biological target: T1, human recombinant CBL-b (human Biotin CBL-b recombinant protein a.a. 39-426) (Homo sapiens, UniProt Q13191); test: Biochemical assay for CBL-b inhibition (ligand displacement TR-FRET); format: binding; settings: 50 nM CBL-b, 0.3 μM Bodipy FL-Probe, read-out: IC50 (CBL-b inhibition, group)
T1 construct: human Biotin CBL-b recombinant protein a.a; 39-426; Biotin (biotinylated); made in house
In short: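 Ligand-displacement TR-FRET: 0.3 μM Bodipy FL probe competes with compound for 50 nM biotin-CBL-b (aa 39-426) after a 60 min RT compound pre-incubation; terbium-streptavidin detection, 60 min each step. Dose-response sigmoidal fitting gave IC50 and % maximum inhibition.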

[2] = test system: NFAT signaling pathway in Jurkat NFAT reporter cells; test: Jurkat NFAT reporter assay; format: cell-based; settings: Homo sapiens, 30 min with compound, then soluble anti-human CD3/CD28 antibody for 6 hours, luciferase readout, read-out: EC50 (Group)
In short: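 Results are expressed as fold change relative to stimulated, inhibitor-free cells. Stimulation was 6 h with soluble anti-human CD3/CD28 antibody after a 30-min exposure of 1×10^5 NFAT-RE luciferase Jurkat reporter cells per well to the Cbl-b inhibitor; signal read by Bio-Glo bioluminescence.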

T1 sequence (Q13191 39-426): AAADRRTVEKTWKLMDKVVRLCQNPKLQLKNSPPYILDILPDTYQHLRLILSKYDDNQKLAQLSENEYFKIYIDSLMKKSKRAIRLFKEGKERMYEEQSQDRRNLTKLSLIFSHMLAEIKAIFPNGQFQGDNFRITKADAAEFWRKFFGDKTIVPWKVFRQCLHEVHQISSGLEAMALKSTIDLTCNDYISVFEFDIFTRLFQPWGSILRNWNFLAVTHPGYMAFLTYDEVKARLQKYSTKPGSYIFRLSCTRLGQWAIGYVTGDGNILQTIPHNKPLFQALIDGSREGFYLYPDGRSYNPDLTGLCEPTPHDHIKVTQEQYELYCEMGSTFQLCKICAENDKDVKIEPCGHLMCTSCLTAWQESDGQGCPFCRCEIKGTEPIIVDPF

Compound | IC50 [1] | EC50 [2]
Cn1cnnc1CC1(c2ccc3c(c2)C(=O)N(c2cc(CNCC4CC4(F)F)cc(Cl)n2)C3)COC1 (centres unmarked) [Compound 175, 2-(6-Chloro-4-((((2,2-difluorocyclopropyl)methyl)amino)methyl)pyridin-2-yl)-6-(3-((4-methyl-4H-1,2,4-triazol-3-yl)methyl)oxetan-3-yl)isoindolin-1-one] | < 80 nM | 300 to 1000 nM
CC1CN(Cc2cc(Cl)nc(N3Cc4ccc(C5(Cc6nncn6C)COC5)cc4C3=O)c2)CCC1(F)F (centres unmarked) [Compound 178] | < 80 nM | 300 to 1000 nM
Cn1cnnc1CC1(c2ccc3c(c2)C(=O)N(c2cc(CNCC4CCC4)cc(Cl)n2)C3)CC(C#N)C1 (centres unmarked) [Compound 182, 3-(2-(6-Chloro-4-(((cyclobutylmethyl)amino)methyl)pyridin-2-yl)-3-oxoiso-indolin-5-yl)-3-((4-methyl-4H-1,2,4-triazol-3-yl)methyl)cyclobutane-1-carbonitrile] | < 80 nM | < 300 nM
Cn1cnnc1CC1(c2ccc3c(c2)C(=O)N(c2cc(CNCC4(F)CCC4)cc(Cl)n2)C3)COC1 [Compound 185] | < 80 nM | 1000 to 10000 nM
Cn1cnnc1CC1(c2ccc3c(c2)C(=O)N(c2cc(CNCC(C)(C)O)cc(Cl)n2)C3)COC1 [Compound 187] | < 80 nM | 1000 to 10000 nM
Cn1cnnc1CC1(c2ccc3c(c2)C(=O)N(c2cc(CNCC4CCCO4)cc(Cl)n2)C3)COC1 (centres unmarked) [Compound 188, 2-(6-Chloro-4-((((tetrahydrofuran-2-yl)methyl)amino)methyl)pyridin-2-yl)-6-(3-((4-methyl-4H-1,2,4-triazol-3-yl)methyl)oxetan-3-yl)isoindolin-1-one] | < 80 nM | 300 to 1000 nM
Cn1cnnc1CC1(c2ccc3c(c2)C(=O)N(c2cc(CNCc4cscn4)cc(Cl)n2)C3)COC1 [Compound 189] | < 80 nM | 1000 to 10000 nM
CC(Cc1nncn1C)Nc1ccc2c(c1)C(=O)N(c1cc(CN3CCC[C@H](C)C3)cc(Cl)n1)C2 (some centres unmarked) [Compound 190] | < 80 nM | 1000 to 10000 nM
Cn1cnnc1CC1(c2ccc3c(c2)C(=O)N(c2cc(CNC4CCCC4O)cc(Cl)n2)C3)COC1 (centres unmarked) [Compound 193, 2-(6-Chloro-4-(((2-hydroxycyclopentyl)amino)methyl)pyridin-2-yl)-6-(3-((4-methyl-4H-1,2,4-triazol-3-yl)methyl)oxetan-3-yl)isoindolin-1-one] | < 80 nM | 1000 to 10000 nM
CC1CN(Cc2cc(Cl)nc(N3Cc4ccc(C5(Cc6nncn6C)COC5)cc4C3=O)c2)CC1F (centres unmarked) [Compound 197] | < 80 nM | 300 to 1000 nM
Cc1nc(N2Cc3ccc(C4(Cc5nncn5C)COC4)cc3C2=O)cc(CNCC2CC2)c1F [Compound 198] | < 80 nM | 1000 to 10000 nM
CC(NCC1CC1(F)F)c1cc(Cl)nc(N2Cc3ccc(C4(Cc5nncn5C)COC4)cc3C2=O)c1 (centres unmarked) [Compound 199, 2-(6-Chloro-4-(1-(((2,2-difluorocyclopropyl)methyl)amino)ethyl)pyridin-2-yl)-6-(3-((4-methyl-4H-1,2,4-triazol-3-yl)methyl)oxetan-3-yl)isoindolin-1-one] | < 80 nM | < 300 nM
Cn1cnnc1CC1(c2ccc3c(c2)C(=O)N(c2cc(CNC4CCCC4)cc(Cl)n2)C3)COC1 [Compound 201, 2-(6-Chloro-4-((cyclopentylamino)methyl)pyridin-2-yl)-6-(3-((4-methyl-4H-1,2,4-triazol-3-yl)methyl)oxetan-3-yl)isoindolin-1-one] | < 80 nM | < 300 nM
CC(CNCc1cc(Cl)nc(N2Cc3ccc(C4(Cc5nncn5C)COC4)cc3C2=O)c1)C(F)(F)F (centres unmarked) [Compound 202, 2-(6-Chloro-4-(((3,3,3-trifluoro-2-methylpropyl)amino)methyl)pyridin-2-yl)-6-(3-((4-methyl-4H-1,2,4-triazol-3-yl)methyl)oxetan-3-yl)isoindolin-1-one] | < 80 nM | < 300 nM
CC(NCc1cscn1)c1cc(Cl)nc(N2Cc3ccc(C4(Cc5nncn5C)COC4)cc3C2=O)c1 (centres unmarked) [Compound 205] | < 80 nM | < 300 nM
Cn1cnnc1CC1(c2ccc3c(c2)C(=O)N(c2cc(CNCC4(O)CCC4)cc(Cl)n2)C3)COC1 [Compound 216] | < 80 nM | 1000 to 10000 nM
CC(NCC1CC1)c1cc(Cl)nc(N2Cc3ccc(C4(Cc5nncn5C)CC(C#N)C4)cc3C2=O)c1 (centres unmarked) [Compound 225, 3-(2-(6-Chloro-4-(1-((cyclopropylmethyl)amino)ethyl)pyridin-2-yl)-3-oxoiso-indolin-5-yl)-3-((4-methyl-4H-1,2,4-triazol-3-yl)methyl)cyclobutane-1-carbonitrile] | < 80 nM | < 300 nM
Cn1cnnc1CC1(c2ccc3c(c2)C(=O)N(c2cc(CNCC4CC(F)(F)C4)cc(Cl)n2)C3)CC(C#N)C1 (centres unmarked) [Compound 227, 3-(2-(6-Chloro-4-((((3,3-difluorocyclobutyl)methyl)amino)methyl)pyridin-2-yl)-3-oxoisoindolin-5-yl)-3-((4-methyl-4H-1,2,4-triazol-3-yl)methyl)cyclobutane-1-carbo-nitrile] | < 80 nM | 300 to 1000 nM

The remaining lines, values ahead:

IC50 [1] | EC50 [2] | Compound
< 80 nM | < 300 nM | Cn1cnnc1CC1(c2ccc3c(c2)C(=O)N(c2cc(CNCC4CC4)cc(Cl)n2)C3)CCC1 [Compound 145, 2-(6-Chloro-4-(((cyclopropylmethyl)amino)methyl)pyridin-2-yl)-6-(1-((4-methyl-4H-1,2,4-triazol-3-yl)methyl)cyclobutyl)isoindolin-1-one]
< 80 nM | 300 to 1000 nM | Cc1cc(CNCC2CC2)cc(N2Cc3ccc(C4(Cc5nncn5C)COC4)cc3C2=O)n1 [Compound 147, 2-(4-(((Cyclopropylmethyl)amino)methyl)-6-methylpyridin-2-yl)-6-(3-((4-methyl-4H-1,2,4-triazol-3-yl)methyl)oxetan-3-yl)isoindolin-1-one]
< 80 nM | < 300 nM | CCC1CCCN(Cc2cc(Cl)nc(N3Cc4ccc(C5(Cc6nncn6C)COC5)cc4C3=O)c2)C1 (centres unmarked) [Compound 148, 2-(6-Chloro-4-((3-ethylpiperidin-1-yl)methyl)pyridin-2-yl)-6-(3-((4-methyl-4H-1,2,4-triazol-3-yl)methyl)oxetan-3-yl)isoindolin-1-one]
< 80 nM | < 300 nM | Cn1cnnc1CC1(c2ccc3c(c2)C(=O)N(c2cc(CNCCC(F)(F)F)cc(Cl)n2)C3)CCC1 [Compound 151, 2-(6-Chloro-4-(((3,3,3-trifluoropropyl)amino)methyl)pyridin-2-yl)-6-(1-((4-methyl-4H-1,2,4-triazol-3-yl)methyl)cyclobutyl)isoindolin-1-one]
< 80 nM | < 300 nM | C[C@H]1CCCN(Cc2cc(Cl)nc(N3Cc4ccc(C5(Cc6nncn6C)CC(F)(F)C5)cc4C3=O)c2)C1 [Compound 152, (S)-2-(6-Chloro-4-((3-methylpiperidin-1-yl)methyl)pyridin-2-yl)-6-(3,3-difluoro-1-((4-methyl-4H-1,2,4-triazol-3-yl)methyl)cyclobutyl)isoindolin-1-one]
< 80 nM | 300 to 1000 nM | Cn1cnnc1CC1(c2ccc3c(c2)C(=O)N(c2cc(CNCC4CC4)cc(Cl)n2)C3)CC(C#N)C1 (centres unmarked) [Compound 156]
< 80 nM | < 300 nM | Cn1cnnc1CC1(c2ccc3c(c2)C(=O)N(c2cc(CN4CCCCCC4)cc(Cl)n2)C3)COC1 [Compound 157]
< 80 nM | 1000 to 10000 nM | Cn1cnnc1CC1(c2ccc3c(c2)C(=O)N(c2cc(CNCCC(F)(F)F)cc(Cl)n2)C3)CC(C#N)C1 (centres unmarked) [Compound 158, 3-(2-(6-Chloro-4-(((3,3,3-trifluoropropyl)amino)methyl)pyridin-2-yl)-3-oxoisoindolin-5-yl)-3-((4-methyl-4H-1,2,4-triazol-3-yl)methyl)cyclobutane-1-carbonitrile]
< 80 nM | < 300 nM | Cn1cnnc1CC1(c2ccc3c(c2)C(=O)N(c2cc(CNCC4CCCC4)cc(Cl)n2)C3)COC1 [Compound 159, 2-(6-Chloro-4-(((cyclopentylmethyl)amino)methyl)pyridin-2-yl)-6-(3-((4-methyl-4H-1,2,4-triazol-3-yl)methyl)oxetan-3-yl)isoindolin-1-one]
< 80 nM | < 300 nM | Cn1cnnc1CC1(c2ccc3c(c2)C(=O)N(c2cc(CNCC4CCC4)cc(C(F)(F)F)n2)C3)COC1 [Compound 162, 2-(4-(((Cyclobutylmethyl)amino)methyl)-6-(trifluoromethyl)pyridin-2-yl)-6-(3-((4-methyl-4H-1,2,4-triazol-3-yl)methyl)oxetan-3-yl)isoindolin-1-one]
< 80 nM | < 300 nM | Cn1cnnc1CC1(c2ccc3c(c2)C(=O)N(c2cc(CNCC4CCC4)cc(Cl)n2)C3)CCC1 [Compound 168]
< 80 nM | < 300 nM | Cn1cnnc1CC1(c2ccc3c(c2)C(=O)N(c2cc(CNCC4CC(F)(F)C4)cc(Cl)n2)C3)COC1 [Compound 169, 2-(6-Chloro-4-((((3,3-difluorocyclobutyl)methyl)amino)methyl)pyridin-2-yl)-6-(3-((4-methyl-4H-1,2,4-triazol-3-yl)methyl)oxetan-3-yl)isoindolin-1-one]
< 80 nM | 300 to 1000 nM | Cn1cnnc1CC1(c2ccc3c(c2)C(=O)N(c2cc(CNCC4(C)CCC4)cc(Cl)n2)C3)COC1 [Compound 172, 2-(6-Chloro-4-((((1-methylcyclobutyl)methyl)amino)methyl)pyridin-2-yl)-6-(3-((4-methyl-4H-1,2,4-triazol-3-yl)methyl)oxetan-3-yl)isoindolin-1-one]
